US20110257176A1, “NITROGEN HETEROCYCLE DERIVATIVES AS PROTEASOME MODULATORS” (INSTITUT NATIONAL DE LA SANTE ET DE LA RECHERCHE MEDICALE …, priority 2008, published 2011)

Assays:
[1] = target: T1, rabbit reticulocyte 20S proteasome, chymotrypsin-like (CT-L) activity (UniProt G1T4Q9); experiment: 20S proteasome chymotrypsin-like (CT-L) activity, Suc-LLVY-AMC hydrolysis; format: biochemical; conditions: rabbit 20S proteasome, pH 8, 37° C.
T1 construct: IC50 on chymotrypsin-like activity; other: rabbit 20S proteasome, pH 8, 37° C; Rabbit erythrocyte 20S proteasome was obtained from Boston Biochem, Cambridge, USA
T1 sequence (G1T4Q9 entry or part of it): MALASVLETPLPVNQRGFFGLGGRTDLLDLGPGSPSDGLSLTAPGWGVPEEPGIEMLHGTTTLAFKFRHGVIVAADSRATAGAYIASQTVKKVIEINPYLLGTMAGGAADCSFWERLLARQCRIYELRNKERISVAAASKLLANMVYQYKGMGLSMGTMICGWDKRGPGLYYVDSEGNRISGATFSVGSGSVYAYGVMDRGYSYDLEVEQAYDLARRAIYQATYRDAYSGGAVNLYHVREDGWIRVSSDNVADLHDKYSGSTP
Description: (§1) Rabbit erythrocyte 20S proteasome was obtained from Boston Biochem, Cambridge, USA. The fluorogenic substrates Suc-LLVY-AMC, Boc-LRR-AMC and Z-LLE-βNA used to measure the proteasome activities CT-L, T-L and PA respectively were purchased from Bachem (France). Other reagents and solvents were purchased from commercial sources. Fluorescence was measured using a BMG Fluostar microplate reader.
(§2) Compounds 1-23 were tested for their potential to inhibit the CT-L, T-L and PA activities of the rabbit reticulocyte 20S proteasome. Enzyme activities were determined by monitoring the hydrolysis of the appropriate fluorogenic substrate (λexc=360, λem=465 nm for AMC substrates, and λexc=340, λem=405 nm for the βNA substrate) for 1 h at 37° C.
(§3) In the in vitro screening, each compound was tested in duplicate against the three activities, at 100 μM and 50 μM in the corresponding buffer. The buffer were (pH 8): 50 mM Tris, 150 mM NaCl, 10% (v/v) glycerol, 0.025% (w/v) SDS, and 3% (v/v) DMSO (CT-L and PA activities); 50 mM Tris, 150 mM NaCl, 10% (v/v) glycerol, and 3% (v/v) DMSO (T-L activity).
(§4) The inhibitory activity of compounds is expressed as IC50, which corresponds to the concentration of proteasome inhibitor leading to a loss of activity of 50%. The values of IC50 were calculated by fitting the experimental data to equation 1: % Inhibition=100×(1−Vi/V0)=100 [I]0/(IC50+[I]0), or equation 2: % Inhibition=100 [I]0^nH/(IC50^nH+[I]0^nH), where Vi is the initial rate in the presence of the inhibitor, V0 is the initial rate in the absence of the inhibitor, [I]0 is the inhibitor concentration, nH is the Hill number (FIG. 1).

[2] = target: rabbit reticulocyte 20S proteasome, post-acid (PA) activity (Oryctolagus cuniculus, UniProt G1T235); experiment: 20S proteasome post-acid (PA) activity, Z-LLE-βNA hydrolysis; format: biochemical; parameters: key to Inhibition of post-acid activity (NI): NI: No Inhibition; conditions: rabbit 20S proteasome; for Inhibition of post-acid activity (NI): screened at 100 μM and 50 μM; for IC50: pH 8, 37° C.
Chain of rabbit reticulocyte 20S proteasome, post-acid (PA) activity (G1T235 entry or part of it): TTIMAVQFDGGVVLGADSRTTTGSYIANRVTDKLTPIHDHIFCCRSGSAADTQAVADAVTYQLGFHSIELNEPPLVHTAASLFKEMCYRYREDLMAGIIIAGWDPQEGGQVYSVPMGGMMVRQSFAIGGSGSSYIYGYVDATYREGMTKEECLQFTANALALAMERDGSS
Description: as §1, §2, §3, §4

[3] = test system: rabbit reticulocyte 20S proteasome, trypsin-like (T-L) activity; experiment: 20S proteasome trypsin-like (T-L) activity, Boc-LRR-AMC hydrolysis; format: biochemical; parameters: key to Inhibition of trypsin-like activity (NI): NI: No Inhibition; conditions: rabbit 20S proteasome; for Inhibition of trypsin-like activity (NI): screened at 100 μM and 50 μM
Description: as §1, §2, §3, §4

[4] = target: T2, human erythrocyte 20S proteasome, chymotrypsin-like (CT-L) activity (Homo sapiens, UniProt P28074); experiment: 20S proteasome chymotrypsin-like (CT-L) activity, Suc-LLVY-AMC hydrolysis; format: biochemical; conditions: for IC50: pH 7.5
T2 construct: three activities of human erythrocyte 20S proteasome; from tissue; host or cells: human erythrocytes
Description: as §1, §4
(§5) Compounds 24, 25 and 31-35 were tested in duplicate against three activities of human erythrocyte 20S proteasome at 100 and 50 μM in the appropriate buffer (pH 7.5): 20 mM Tris HCl, 10% (v/v) glycerol, 0.01% (w/v) SDS and 2% DMSO (CT-L and PA activities); 20 mM Tris HCl, 10% (v/v) glycerol, and 2% DMSO (T-L activity). The inhibitory activities were analyzed as described above for compounds 1-23.

[5] = target: T3, human erythrocyte 20S proteasome, post-acid (PA) activity (Homo sapiens, UniProt P28072); experiment: 20S proteasome post-acid (PA) activity, Z-LLE-βNA hydrolysis; format: biochemical; parameters: key: NI: No Inhibition; conditions: screened at 100 and 50 μM
T3 construct: three activities of human erythrocyte 20S proteasome; from tissue; host or cells: human erythrocytes
Description: as §1, §4, §5

[6] = target: T4, human erythrocyte 20S proteasome, trypsin-like (T-L) activity (Homo sapiens, UniProt Q99436); experiment: 20S proteasome trypsin-like (T-L) activity, Boc-LRR-AMC hydrolysis; format: biochemical; parameters: key to Inhibition of trypsin-like activity (NI): NI: No Inhibition; conditions: for IC50: pH 7.5; for inhibition at 100 µM: 100 μM inhibitor, read-out: % inhibition (inhibitor concentration) on trypsin-like activity
T4 construct: three activities of human erythrocyte 20S proteasome; from tissue; host or cells: human erythrocytes
Description: as §1, §4, §5

| Inhibition of post-acid activity (NI) [5] | melting point | Structure (SMILES) | IC50 [1] | Inhibition of post-acid activity (NI) [2] | Inhibition of trypsin-like activity (NI) [3] | also measured |
| --- | --- | --- | --- | --- | --- | --- |
|  |  | CCc1ccc(OCC(=O)N(Cc2nc(-c3cccc(C)c3)no2)C(C)C)cc1 [Compound 3] | 0.17 ± 0.01 µM | NI | NI |  |
|  |  | Cc1cccc(-c2noc(CN(C(=O)COc3ccc(Br)cc3)C(C)C)n2)c1 [Compound 4] | 0.51 ± 0.07 µM | NI |  | % inhibition (inhibitor concentration) on trypsin-like activity ([3]; 50 μM inhibitor): 7.3% |
|  |  | COc1ccc(OCC(=O)N(Cc2nc(-c3cccc(C)c3)no2)C(C)C)cc1 [Compound 5] | 0.91 ± 0.12 µM | NI | NI |  |
|  |  | CCc1ccc(OCC(=O)N(Cc2nc(-c3ccc(OC)cc3)no2)C(C)C)cc1 [Compound 7] | 0.09 ± 0.006 µM | NI | NI |  |
|  |  | COc1ccc(-c2noc(CN(C(=O)COc3ccc(C)cc3)C(C)C)n2)cc1 [Compound 10] | 0.71 ± 0.04 µM | NI | NI |  |
|  |  | COc1ccc(-c2noc(CN(C(=O)COc3ccc(Br)cc3)C(C)C)n2)cc1 [Compound 12] | 0.1 ± 0.01 µM | NI | NI |  |
|  |  | COc1ccc(-c2noc(CN(C(=O)C(C)Oc3ccccc3)C(C)C)n2)cc1 (stereo not drawn) [Compound 14] | 8.05 ± 0.83 µM | NI | NI |  |
|  |  | Cc1cccc(OCC(=O)N(Cc2nc(-c3cccc(C)c3)no2)C(C)C)c1 [Compound 15] | ~27 µM | NI | NI |  |
|  |  | C=CCN(Cc1nc(-c2ccccc2)no1)C(=O)COc1ccc(C)cc1 [Compound 18] | 0.33 ± 0.03 µM | NI | NI |  |
| NI | 87 °C | CC(C)N(Cc1nc(-c2ccc(Oc3ccccc3)cc2)no1)C(=O)COc1ccc(Br)cc1 [Compound 24] |  |  |  | IC50 [4]: 0.61 ± 0.03 µM; IC50 [6]: 10.8 ± 0.4 µM |
| NI | 135 °C | COc1ccc(-c2noc(CN(C(=O)COc3ccc(Br)cc3)C(C)C)n2)cc1OC [Compound 25] |  |  |  | IC50 [4]: 0.037 ± 0.003 µM; Inhibition of trypsin-like activity (NI) ([6]; screened at 100 and 50 μM): NI |
|  |  | Cc1noc(CN(C(=O)COc2ccc(Br)cc2)C(C)C)n1 [Compound 27] | 12.3 ± 0.3 µM |  | NI | IC50 [2]: 76 ± 2 µM |
|  |  | CC(C)c1noc(CN(C(=O)COc2ccc(Br)cc2)C(C)C)n1 [Compound 28] | 12.3 ± 0.3 µM |  | NI | IC50 [2]: 45 ± 1 µM |
|  |  | CC(C)N(Cc1nc(C(C)(C)C)no1)C(=O)COc1ccc(Br)cc1 [Compound 29] | 81 ± 4 µM |  | NI | IC50 [2]: 28 ± 3 µM |
| NI | 114 °C | CC(C)N(Cc1nc(-c2cccc3ccccc23)no1)C(=O)COc1ccc(Br)cc1 [Compound 32] |  |  |  | inhibition at 100 µM ([4]; 100 μM inhibitor, read-out: % inhibition (inhibitor concentration) on chymotrypsin-like activity): 30%; IC50 [6]: 29.1 ± 0.9 µM |
| NI | 110 °C | CC(C)N(Cc1nc(CN2CCOCC2)no1)C(=O)COc1ccc(Br)cc1 [Compound 33] |  |  |  | IC50 [4]: 78.6 ± 1.6 µM; inhibition at 100 µM [6]: 42% |
| NI | 168 °C | CCN(CC)Cc1noc(CN(C(=O)COc2ccc(Br)cc2)C(C)C)n1 [Compound 34] |  |  |  | IC50 [4]: 30.9 ± 2.3 µM; inhibition at 100 µM [6]: 28% |
| NI | 144 °C | CC(C)N(Cc1nc(CN2CCCCC2)no1)C(=O)COc1ccc(Br)cc1 [Compound 35] |  |  |  | IC50 [4]: 37.3 ± 4.2 µM; inhibition at 100 µM [6]: 47% |
